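48-hour exposure; five concentrations; linearly interpolated endpoints. Abbreviation: GI50, concentration required for 50% inhibition of growth. TGI: concentration producing complete growth inhibition.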
Legend:
Test in all cases: growth of human tumour cells (NCI), 48 h
[1] = system: IGROV1 ovarian
[2] = system: NCI-H226 lung
[3] = system: MDA-N
[4] = system: BT-549 breast
[5] = system: OVCAR-8 ovarian
[6] = system: HCC-2998 colon
[7] = system: ACHN renal
[8] = system: HT29 colon
[9] = system: A498 renal
[10] = system: HOP-62 NSCLC
[11] = system: M14 melanoma
[12] = system: UACC-257 melanoma
[13] = system: MDA-MB-231 breast
[14] = system: MOLT-4 leukemia
[15] = system: A549 NSCLC
[16] = system: NCI-H522 lung
[17] = system: HS 578T breast
[18] = system: OVCAR-4 ovarian
[19] = system: PC-3 prostate
[20] = system: MDA-MB-435
[21] = system: RPMI-8226 leukemia
[22] = system: OVCAR-3 ovarian
[23] = system: HCT-15 colon
[24] = system: UACC-62 melanoma
[25] = system: T-47D breast
[26] = system: HL-60(TB) leukemia
[27] = system: LOX IMVI melanoma
[28] = system: SK-MEL-2 melanoma
[29] = system: SK-OV-3 ovarian
[30] = system: K-562 leukemia
[31] = system: EKVX NSCLC
[32] = system: COLO 205 colon
[33] = system: SF-295 CNS
[34] = system: CCRF-CEM leukemia
[35] = system: SN12C renal
[36] = system: 786-0 renal
[37] = system: SF-268 CNS
[38] = system: SNB-75 CNS
[39] = system: DU-145 prostate
[40] = system: NCI-H23 lung
[41] = system: SK-MEL-28 melanoma
[42] = system: OVCAR-5 ovarian
[43] = system: NCI/ADR-RES ovarian
[44] = system: TK-10 renal
[45] = system: RXF 393 renal
[46] = system: KM12 colon
[47] = system: SW-620 colon
[48] = system: MCF7 breast
[49] = system: U251 CNS
[50] = system: HOP-92 NSCLC
[51] = system: NCI-H460 lung
[52] = system: CAKI-1 renal
[53] = system: SF-539 CNS
[54] = system: MALME-3M melanoma
[55] = system: HCT-116 colon
[56] = system: SNB-19 CNS

## O=C(c1ccc(Cl)c(Cl)c1)N1CCN(C(=O)c2ccc(Cl)c(Cl)c2)C1=S
[1]
  GI50: 19.7 µM
  TGI: 36.3 µM
[2]
  GI50: 19 µM
  TGI: 37.4 µM
[3]
  GI50: 18.3 µM
  TGI: 38.4 µM
[4]
  GI50: 23.6 µM
  TGI: 48 µM
[5]
  GI50: 19 µM
  TGI: 34.1 µM
[6]
  GI50: 19.9 µM
  TGI: 42.9 µM
[7]
  GI50: 19.2 µM
  TGI: 34.4 µM
[8]
  GI50: 24.2 µM
  TGI: 53 µM
[9]
  GI50: 20.2 µM
  TGI: 36 µM
[10]
  GI50: 17.6 µM
  TGI: 42.8 µM
[11]
  GI50: 19.6 µM
  TGI: 37.9 µM
[12]
  GI50: 17.3 µM
  TGI: 35.6 µM
[13]
  GI50: 18.8 µM
  TGI: 33.3 µM
[14]
  GI50: 15.7 µM
  TGI: 36.3 µM
[15]
  GI50: 27.8 µM
  TGI: 68.9 µM
[16]
  GI50: 6.14 µM
  TGI: 25 µM
[17]
  GI50: 29.1 µM
  TGI: > 100 µM
[18]
  GI50: 16.8 µM
  TGI: 31.4 µM
[19]
  GI50: 16.7 µM
  TGI: 31.7 µM
[20]
  GI50: 15.4 µM
  TGI: 31.3 µM
[21]
  TGI: 5.6 µM
[22]
  GI50: 17.1 µM
  TGI: 35.2 µM
[23]
  GI50: 19.6 µM
  TGI: 43.7 µM
[24]
  GI50: 18.1 µM
  TGI: 34.4 µM
[25]
  GI50: 17.5 µM
  TGI: 73.6 µM
[26]
  GI50: 12.7 µM
  TGI: 31.3 µM
[27]
  GI50: 7.63 µM
  TGI: 24.2 µM
[28]
  GI50: 18.4 µM
  TGI: 33.9 µM
[29]
  GI50: 18.2 µM
  TGI: 33.9 µM
[30]
  GI50: 16.3 µM
  TGI: 60 µM
[31]
  GI50: 20.8 µM
  TGI: 38.4 µM
[32]
  GI50: 17.8 µM
  TGI: 33.6 µM
[33]
  GI50: 18.5 µM
  TGI: 39.7 µM
[34]
  GI50: 4.47 µM
  TGI: 18.7 µM
[35]
  GI50: 18.3 µM
  TGI: 43.9 µM
[36]
  GI50: 7.16 µM
  TGI: 20.5 µM
[37]
  GI50: 16.8 µM
  TGI: 47.9 µM
[38]
  GI50: 18.9 µM
  TGI: 36.4 µM
[39]
  GI50: 14.7 µM
  TGI: 29 µM
[40]
  GI50: 22 µM
  TGI: 43 µM
[41]
  GI50: 30.6 µM
  TGI: 69.8 µM
[42]
  GI50: 24.3 µM
  TGI: 51.3 µM
[43]
  GI50: 34.4 µM
  TGI: > 100 µM
[44]
  GI50: 18.5 µM
  TGI: 36.5 µM
[45]
  GI50: 17.8 µM
  TGI: 35.8 µM
[46]
  GI50: 16.1 µM
  TGI: 33.1 µM
[47]
  GI50: 21.3 µM
  TGI: 52.1 µM
[48]
  GI50: 5.57 µM
  TGI: 36.4 µM
[49]
  GI50: 16.4 µM
  TGI: 29.9 µM
[50]
  GI50: 20 µM
  TGI: 34.2 µM
[51]
  GI50: 22 µM
  TGI: 49.4 µM
[52]
  GI50: 14 µM
  TGI: 27.1 µM
[53]
  GI50: 15.1 µM
  TGI: 29.9 µM
[54]
  GI50: 14.9 µM
  TGI: 30.6 µM
[55]
  GI50: 18.1 µM
  TGI: 32.8 µM
[56]
  GI50: 21.4 µM
  TGI: 40.7 µM

Source: PubChem BioAssay (NCI)
